{
  "source": "patent US20100280059A1",
  "about": "“COMPOSITIONS COMPRISING AN ANTIHISTAMINE, A[…] DE[…] EXTENDED RELEASE FORMULATIONS” (Atley Pharmaceuticals, Inc., priority 2009, published 2010)",
  "origin": "cited, not measured here",
  "key": {"[1]": {"experiment": "not given", "remark": "listed apart in the source"}, "[2]": {"experiment": "not given", "remark": "listed apart in the source"}, "[3]": {"conditions": "single IR oral dose of 10 mg HC, 5 male human subjects"}},
  "note": "Like-named read-outs stand apart in the source and are kept apart here.",
  "data": [
    {"smiles": "COc1ccc2c3c1O[C@H]1C(=O)CC[C@H]4[C@@H](C2)N(C)CC[C@]314", "note": "[HC, hydrocodone]", "values": [
      {"measurement": "share of total excretion occurring in the first 24 hours", "setting": "after a single oral dose", "value": "About 70%"},
      {"measurement": "elimination half-life of the parent-compound", "setting": "in vivo", "value": "3.8 to 4.5", "unit": "h"},
      {"measurement": "Tmax", "setting": "[3]", "value": "approximately 1.3±0.3 hours"},
      {"measurement": "mean peak serum concentration", "setting": "[3]", "value": "23.6 ± 5.2", "unit": "ng/mL"}
    ]},
    {"smiles": "CN(C)CCC(c1ccc(Cl)cc1)c1ccccn1", "note": "(stereo not shown) [CPM, chlorpheniramine]", "values": [
      {"measurement": "excreted in the feces", "setting": "[1]; in vivo", "value": "Less than 1%"},
      {"measurement": "renal elimination as share of total excretion", "setting": "[1]; in vivo", "value": "approximately 50%"},
      {"measurement": "excreted in the urine", "setting": "[1]; metabolism to monodesmethyl and didesmethyl compounds", "value": "up to 26%"}
    ]},
    {"smiles": "CN[C@@H](C)[C@@H](O)c1ccccc1", "note": "[PSE, pseudoephedrine]", "values": [
      {"measurement": "half-life", "setting": "[2]; affected by urinary pH", "value": "9 to 16", "unit": "h"},
      {"measurement": "Tmax", "setting": "[2]; following administration", "value": "1.5 to 2.4", "unit": "h"},
      {"measurement": "dose excreted unchanged in the urine", "setting": "[2]; within 24 hours of dosing", "value": "up to 90%"}
    ]}
  ]
}
